Results taken from patent US6358885B1, “Substituted phenylheterocyclic herbicides” (Mississippi State University, priority 1992, dated 2002).

Experiments:
Experiment in all cases: Test B preemergence/postemergence greenhouse plant response rating 0 to 10
crabgrass = assay type: in vivo, Digitaria spp.; settings: for Plant response rating, Crabgrass: 0 to 10 scale
In short: (§1)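 Test chemicals were sprayed onto freshly planted seed and, concurrently, onto young plants between the one and four leaf stage. After a twelve- to sixteen-day greenhouse period, each species was visually compared with untreated controls.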

wheat = assay type: in vivo, Triticum aestivum; settings: for Plant response rating, Wheat: 0 to 10 scale
In short: as §1

cheatgrass = assay type: in vivo, Bromus secalinus; settings: for Plant response rating, Cheatgrass: 0 to 10 scale
In short: as §1

wild oat = assay type: in vivo, Avena fatua; settings: for Plant response rating, Wild oat: 0 to 10 scale
In short: as §1

corn = assay type: in vivo, Zea mays; settings: for Plant response rating, Corn: 0 to 10 scale
In short: as §1

purple nutsedge = assay type: in vivo, Cyperus rotundus; settings: for Plant response rating, Nutsedge: 0 to 10 scale
In short: as §1

rape = assay type: in vivo, Brassica napus; settings: for Plant response rating, Rape: 0 to 10 scale
In short: as §1

giant foxtail = assay type: in vivo, Setaria faberii; settings: for Plant response rating, Giant foxtail: 0 to 10 scale
In short: as §1

velvetleaf = assay type: in vivo, Abutilon theophrasti; settings: for Plant response rating, Velvetleaf: 0 to 10 scale
In short: as §1

bedstraw = assay type: in vivo, Galium aparine; settings: for Plant response rating, Bedstraw: 0 to 10 scale
In short: as §1

sugar beet = assay type: in vivo, Beta vulgaris; settings: for Plant response rating, Sugar beet: 0 to 10 scale
In short: as §1

sorghum = assay type: in vivo, Sorghum bicolor; settings: for Plant response rating, Sorghum: 0 to 10 scale
In short: as §1

rice = assay type: in vivo, Oryza sativa; settings: for Plant response rating, Rice: 0 to 10 scale
In short: as §1

barnyardgrass = assay type: in vivo, Echinochloa crus-galli; settings: for Plant response rating, Barnyardgrass: 0 to 10 scale
In short: as §1

wild buckwheat = assay type: in vivo, Polygonum convolvulus; settings: for Plant response rating, Wild buckwheat: 0 to 10 scale
In short: as §1

cotton = assay type: in vivo, Gossypium hirsutum; settings: for Plant response rating, Cotton: 0 to 10 scale
In short: as §1

chickweed = assay type: in vivo, Stellaria media; settings: for Plant response rating, Chickweed: 0 to 10 scale
In short: as §1

lambsquarters = assay type: in vivo, Chenopodium album; settings: for Plant response rating, Lambsquarter: 0 to 10 scale
In short: as §1

soybean = assay type: in vivo, Glycine max; settings: for Plant response rating, Soybean: 0 to 10 scale
In short: as §1

cocklebur = assay type: in vivo, Xanthium pensylvanicum; settings: for Plant response rating, Cocklebur: 0 to 10 scale
In short: as §1

morningglory = assay type: in vivo, Ipomoea hederacea; settings: for Plant response rating, Morningglory: 0 to 10 scale
In short: as §1

barley = assay type: in vivo, Hordeum vulgare; settings: for Plant response rating, Barley: 0 to 10 scale
In short: as §1

blackgrass = assay type: in vivo, Alopecurus myosuroides; settings: for Plant response rating, Blackgrass: 0 to 10 scale
In short: as §1

## CON=C(C)c1cc(-c2nn3c(c2Cl)CCCC3)c(F)cc1Cl [Compound 82]
crabgrass; POSTEMERGENCE, Rate 50 g/ha
  Plant response rating, Crabgrass: 3
crabgrass; PREEMERGENCE, Rate 50 g/ha
  Plant response rating, Crabgrass: 3
crabgrass; PREEMERGENCE, Rate 200 g/ha
  Plant response rating (0 to 10 scale), Crabgrass: 7
crabgrass; Rate 200 g/ha, POSTEMERGENCE
  Plant response rating, Crabgrass: 4
wheat; POSTEMERGENCE, Rate 50 g/ha
  Plant response rating, Wheat: 3
wheat; PREEMERGENCE, Rate 50 g/ha
  Plant response rating, Wheat: 0
wheat; PREEMERGENCE, Rate 200 g/ha
  Plant response rating (0 to 10 scale), Wheat: 2
wheat; Rate 200 g/ha, POSTEMERGENCE
  Plant response rating, Wheat: 4
cheatgrass; POSTEMERGENCE, Rate 50 g/ha
  Plant response rating, Cheatgrass: 2
cheatgrass; PREEMERGENCE, Rate 50 g/ha
  Plant response rating, Cheatgrass: 2
cheatgrass; PREEMERGENCE, Rate 200 g/ha
  Plant response rating (0 to 10 scale), Cheatgrass: 6
cheatgrass; Rate 200 g/ha, POSTEMERGENCE
  Plant response rating, Cheatgrass: 3
Wild oat; POSTEMERGENCE, Rate 50 g/ha
  Plant response rating, Wild oat: 2
Wild oat; PREEMERGENCE, Rate 50 g/ha
  Plant response rating, Wild oat: 2
Wild oat; PREEMERGENCE, Rate 200 g/ha
  Plant response rating (0 to 10 scale), Wild oat: 7
Wild oat; Rate 200 g/ha, POSTEMERGENCE
  Plant response rating, Wild oat: 4
corn; POSTEMERGENCE, Rate 50 g/ha
  Plant response rating, Corn: 3
corn; PREEMERGENCE, Rate 50 g/ha
  Plant response rating, Corn: 0
corn; PREEMERGENCE, Rate 200 g/ha
  Plant response rating (0 to 10 scale), Corn: 3
corn; Rate 200 g/ha, POSTEMERGENCE
  Plant response rating, Corn: 4
Purple nutsedge; POSTEMERGENCE, Rate 50 g/ha
  Plant response rating, Nutsedge: 2
Purple nutsedge; PREEMERGENCE, Rate 50 g/ha
  Plant response rating, Nutsedge: 0
Purple nutsedge; PREEMERGENCE, Rate 200 g/ha
  Plant response rating (0 to 10 scale), Nutsedge: 0
Purple nutsedge; Rate 200 g/ha, POSTEMERGENCE
  Plant response rating, Nutsedge: 2
rape; POSTEMERGENCE, Rate 50 g/ha
  Plant response rating, Rape: 5
rape; PREEMERGENCE, Rate 50 g/ha
  Plant response rating, Rape: 0
rape; PREEMERGENCE, Rate 200 g/ha
  Plant response rating (0 to 10 scale), Rape: 6
rape; Rate 200 g/ha, POSTEMERGENCE
  Plant response rating, Rape: 7
Giant foxtail; POSTEMERGENCE, Rate 50 g/ha
  Plant response rating, Giant foxtail: 4
Giant foxtail; PREEMERGENCE, Rate 50 g/ha
  Plant response rating, Giant foxtail: 3
Giant foxtail; PREEMERGENCE, Rate 200 g/ha
  Plant response rating (0 to 10 scale), Giant foxtail: 6
Giant foxtail; Rate 200 g/ha, POSTEMERGENCE
  Plant response rating, Giant foxtail: 5
velvetleaf; POSTEMERGENCE, Rate 50 g/ha
  Plant response rating, Velvetleaf: 10
velvetleaf; PREEMERGENCE, Rate 50 g/ha
  Plant response rating, Velvetleaf: 0
velvetleaf; PREEMERGENCE, Rate 200 g/ha
  Plant response rating (0 to 10 scale), Velvetleaf: 10
velvetleaf; Rate 200 g/ha, POSTEMERGENCE
  Plant response rating, Velvetleaf: 10
bedstraw; POSTEMERGENCE, Rate 50 g/ha
  Plant response rating, Bedstraw: 8
bedstraw; PREEMERGENCE, Rate 50 g/ha
  Plant response rating, Bedstraw: 0
bedstraw; PREEMERGENCE, Rate 200 g/ha
  Plant response rating (0 to 10 scale), Bedstraw: 9
bedstraw; Rate 200 g/ha, POSTEMERGENCE
  Plant response rating, Bedstraw: 9
Sugar beet; POSTEMERGENCE, Rate 50 g/ha
  Plant response rating, Sugar beet: 10
Sugar beet; PREEMERGENCE, Rate 50 g/ha
  Plant response rating, Sugar beet: 8
Sugar beet; PREEMERGENCE, Rate 200 g/ha
  Plant response rating (0 to 10 scale), Sugar beet: 10
Sugar beet; Rate 200 g/ha, POSTEMERGENCE
  Plant response rating, Sugar beet: 10
sorghum; POSTEMERGENCE, Rate 50 g/ha
  Plant response rating, Sorghum: 2
sorghum; PREEMERGENCE, Rate 50 g/ha
  Plant response rating, Sorghum: 0
sorghum; PREEMERGENCE, Rate 200 g/ha
  Plant response rating (0 to 10 scale), Sorghum: 2
sorghum; Rate 200 g/ha, POSTEMERGENCE
  Plant response rating, Sorghum: 4
rice; POSTEMERGENCE, Rate 50 g/ha
  Plant response rating, Rice: 4
rice; PREEMERGENCE, Rate 50 g/ha
  Plant response rating, Rice: 0
rice; PREEMERGENCE, Rate 200 g/ha
  Plant response rating (0 to 10 scale), Rice: 2
rice; Rate 200 g/ha, POSTEMERGENCE
  Plant response rating, Rice: 6
barnyardgrass; POSTEMERGENCE, Rate 50 g/ha
  Plant response rating, Barnyardgrass: 6
barnyardgrass; PREEMERGENCE, Rate 50 g/ha
  Plant response rating, Barnyardgrass: 2
barnyardgrass; PREEMERGENCE, Rate 200 g/ha
  Plant response rating (0 to 10 scale), Barnyardgrass: 6
barnyardgrass; Rate 200 g/ha, POSTEMERGENCE
  Plant response rating, Barnyardgrass: 7
Wild buckwheat; POSTEMERGENCE, Rate 50 g/ha
  Plant response rating, Wild buckwheat: 10
Wild buckwheat; PREEMERGENCE, Rate 50 g/ha
  Plant response rating, Wild buckwheat: 7
Wild buckwheat; PREEMERGENCE, Rate 200 g/ha
  Plant response rating (0 to 10 scale), Wild buckwheat: 9
Wild buckwheat; Rate 200 g/ha, POSTEMERGENCE
  Plant response rating, Wild buckwheat: 10
cotton; POSTEMERGENCE, Rate 50 g/ha
  Plant response rating, Cotton: 10
cotton; PREEMERGENCE, Rate 50 g/ha
  Plant response rating, Cotton: 0
cotton; PREEMERGENCE, Rate 200 g/ha
  Plant response rating (0 to 10 scale), Cotton: 1
cotton; Rate 200 g/ha, POSTEMERGENCE
  Plant response rating, Cotton: 10
chickweed; POSTEMERGENCE, Rate 50 g/ha
  Plant response rating, Chickweed: 2
chickweed; PREEMERGENCE, Rate 50 g/ha
  Plant response rating, Chickweed: 6
chickweed; PREEMERGENCE, Rate 200 g/ha
  Plant response rating (0 to 10 scale), Chickweed: 0
chickweed; Rate 200 g/ha, POSTEMERGENCE
  Plant response rating, Chickweed: 3
lambsquarters; POSTEMERGENCE, Rate 50 g/ha
  Plant response rating, Lambsquarter: 7
lambsquarters; PREEMERGENCE, Rate 50 g/ha
  Plant response rating, Lambsquarter: 10
lambsquarters; PREEMERGENCE, Rate 200 g/ha
  Plant response rating (0 to 10 scale), Lambsquarter: 10
lambsquarters; Rate 200 g/ha, POSTEMERGENCE
  Plant response rating, Lambsquarter: 9
soybean; POSTEMERGENCE, Rate 50 g/ha
  Plant response rating, Soybean: 4
soybean; PREEMERGENCE, Rate 50 g/ha
  Plant response rating, Soybean: 0
soybean; PREEMERGENCE, Rate 200 g/ha
  Plant response rating (0 to 10 scale), Soybean: 6
soybean; Rate 200 g/ha, POSTEMERGENCE
  Plant response rating, Soybean: 6
cocklebur; POSTEMERGENCE, Rate 50 g/ha
  Plant response rating, Cocklebur: 7
cocklebur; PREEMERGENCE, Rate 50 g/ha
  Plant response rating, Cocklebur: 0
cocklebur; PREEMERGENCE, Rate 200 g/ha
  Plant response rating (0 to 10 scale), Cocklebur: 0
cocklebur; Rate 200 g/ha, POSTEMERGENCE
  Plant response rating, Cocklebur: 8
morningglory; POSTEMERGENCE, Rate 50 g/ha
  Plant response rating, Morningglory: 10
morningglory; PREEMERGENCE, Rate 50 g/ha
  Plant response rating, Morningglory: 0
morningglory; PREEMERGENCE, Rate 200 g/ha
  Plant response rating (0 to 10 scale), Morningglory: 2
morningglory; Rate 200 g/ha, POSTEMERGENCE
  Plant response rating, Morningglory: 10
barley; POSTEMERGENCE, Rate 50 g/ha
  Plant response rating, Barley: 2
barley; PREEMERGENCE, Rate 50 g/ha
  Plant response rating, Barley: 0
barley; PREEMERGENCE, Rate 200 g/ha
  Plant response rating (0 to 10 scale), Barley: 0
barley; Rate 200 g/ha, POSTEMERGENCE
  Plant response rating, Barley: 3
blackgrass; POSTEMERGENCE, Rate 50 g/ha
  Plant response rating, Blackgrass: 2
blackgrass; PREEMERGENCE, Rate 50 g/ha
  Plant response rating, Blackgrass: 0
blackgrass; PREEMERGENCE, Rate 200 g/ha
  Plant response rating (0 to 10 scale), Blackgrass: 4
blackgrass; Rate 200 g/ha, POSTEMERGENCE
  Plant response rating, Blackgrass: 3
